Measurements from patent US20230365571A1, “COMPOUNDS AND COMPOSITIONS AS Sppl2a INHIBITORS” (Novartis AG, priority 2020, published 2023).

Tests used:
Assay type in all cases: cell-based
γ-secretase = γ-secretase (Homo sapiens, UniProt P49768); assay: γ-secretase RGA (reporter gene assay, Notch1 substrate) in HEK293 cells; conditions: Notch1-VP16-Gal4 substrate, Gal4-luciferase reporter, 24 h, read-out: g-secretase RGA IC50
Source text: The assay is based on the coupling of the proteolytic degradation of a membrane bound synthetic substrate, a VP16-Gal4 fusion protein with Notch1, which migrates to the nucleus upon cleavage, where it activates Gal4 driven expression of luciferase. […] The luciferase dependent-luminescence is plotted against the concentrations of compound to generate a dose response curve, which allows the calculation of the IC50 value. DNA vectors encoding human Notch1-VP16-Gal4 and a Gal4-luciferase reporter were transiently transfected in HEK293 cells, which express γ-secretase components endogenously. In a typical experiment 10 μg plasmid encoding the reporter Gal4-luciferase and 20 μg plasmid encoding the substrate Notch1-VP16-Gal4 were mixed together. The DNA mixture was combined with 107 μl FuGENE® (Promega), 735 μl Opti-MEM® (Life Technologies) and incubated for 5 minutes at RT. To this mixture 20 mL of concentrated HEK293 cells were added and thoroughly mixed. The cell suspension was distributed to a white solid 384 well plate. Within hours, 50 nl of compound in DMSO was stamped into the wells via pintool. […] After incubation at room temperature for 5 min, the plate was transferred to a luminometer and the luminescence was measured. The IC50 was determined by plotting compound concentration vs. normalized luminescence values.

human SPPL2a [1] = target: T1, human SPPL2a (Homo sapiens, UniProt Q8TCT8); assay: Sppl2a TL (translocation) imaging assay in U-2 OS cells; design: expressed in transfected cells; conditions: U-2 OS cells expressing human SPPL2a and EGFP-TNFα(aa1-76) NTF substrate; 24 h
T1 sequence (Q8TCT8 26-520): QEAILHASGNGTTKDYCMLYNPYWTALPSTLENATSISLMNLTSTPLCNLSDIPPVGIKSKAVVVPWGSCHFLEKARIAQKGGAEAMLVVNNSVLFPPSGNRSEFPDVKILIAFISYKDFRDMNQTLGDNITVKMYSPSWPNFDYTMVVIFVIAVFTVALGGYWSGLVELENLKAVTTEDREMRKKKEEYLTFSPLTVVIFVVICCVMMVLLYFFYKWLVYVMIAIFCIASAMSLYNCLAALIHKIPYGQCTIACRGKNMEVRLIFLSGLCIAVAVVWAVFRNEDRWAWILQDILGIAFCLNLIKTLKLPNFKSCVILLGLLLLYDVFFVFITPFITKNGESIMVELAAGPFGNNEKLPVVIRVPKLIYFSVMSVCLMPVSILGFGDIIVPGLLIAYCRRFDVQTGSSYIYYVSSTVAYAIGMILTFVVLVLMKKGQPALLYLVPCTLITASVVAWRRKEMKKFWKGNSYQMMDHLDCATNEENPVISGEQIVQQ
In short: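 U-2 OS cells stably expressing human SPPL2a plus doxycycline-induced EGFP-TNFα(aa1-76) NTF, treated 24 h at 37 °C with inhibitor (100 μM–1 nM, 11 points, 0.9% DMSO, 5 μg/mL doxycycline). Imaging of nuclear-minus-cytoplasmic EGFP intensity; % inhibition versus 0.5 μM LY-411,575 and DMSO, IC50 by nonlinear regression; CC50 from cell count.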

human SPPL2a [2] = target: T1, human SPPL2a; assay: Sppl2a RGA (reporter gene assay) in HEK293 cells; design: expressed in transfected cells; host or cells: HEK293 (transient); conditions: NT-TNF-VP16-Gal4 substrate, Gal4-luciferase reporter, 24 h
In short: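 Cleavage of a membrane-bound TNF N-terminal–VP16-Gal4 substrate drives Gal4-luciferase expression in transiently transfected HEK293 cells also expressing human SPPL2a. Compounds incubated 24 h, 37 °C, 5% CO2; luminescence read, normalized and plotted against concentration for IC50.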

Sppl2a CD74 = target: T2, Sppl2a CD74 (Mus musculus, UniProt Q9JJF9); assay: CD74/p8 mouse whole blood assay, flow cytometry format; conditions: Balb/c mouse whole blood, 5 h, CD74 signal on gated live B cells
T2 construct: Mouse whole blood Balb/c mice (sodium citrate) was ordered by Bioreclamation LLC; tissue Bioreclamation LLC
T2 sequence (Q9JJF9 26-523): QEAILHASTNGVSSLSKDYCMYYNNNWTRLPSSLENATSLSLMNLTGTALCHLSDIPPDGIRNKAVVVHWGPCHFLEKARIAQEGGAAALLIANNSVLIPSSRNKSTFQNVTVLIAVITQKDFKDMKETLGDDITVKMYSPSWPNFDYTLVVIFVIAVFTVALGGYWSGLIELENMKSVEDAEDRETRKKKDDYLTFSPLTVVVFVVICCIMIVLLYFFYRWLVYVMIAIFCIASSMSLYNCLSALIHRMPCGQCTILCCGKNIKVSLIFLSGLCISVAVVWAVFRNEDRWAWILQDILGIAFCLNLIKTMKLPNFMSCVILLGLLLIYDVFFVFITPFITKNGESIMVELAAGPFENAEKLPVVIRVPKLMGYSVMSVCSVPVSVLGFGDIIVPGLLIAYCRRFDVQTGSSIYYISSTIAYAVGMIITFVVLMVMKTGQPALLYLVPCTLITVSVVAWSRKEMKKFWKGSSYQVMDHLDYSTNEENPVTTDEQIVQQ
In short: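 Balb/c mouse whole blood (citrate) incubated 5 h at 37 °C with compounds, 11-point dilution from 30 μM top. After RBC lysis, live B220+ B cells stained intracellularly for CD74 (FITC) and analysed by flow cytometry. IC50 fitted from CD74 median fluorescence intensity.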

Molecule | IC50 (human SPPL2a [1]) | IC50 (human SPPL2a [2]) | IC50 (Sppl2a CD74) | IC50 (γ-secretase)
3,4-Dimethyl-N- ((R)-2-(((S)-11- oxo-2,3,10,11- tetrahydro- 1H,5H- benzo[d]pyrazolo [1,2- a][1,2]diazepin- 10- yl)carbamoyl)pen- tyl)isoxazole-5- carboxamide [Example 33] | 37 nM | 7 nM |  | > 10000 nM
CC(C)C(=O)Nc1cc(NC(=O)C[C@H](C(=O)N[C@@H]2C(=O)N3CC4(CC4)CN3C(=O)c3ccccc32)C2CCC2)n(C)n1 [Example 82, (S)-2-Cyclobutyl-N^1-((S)-5,11-dioxo-10,11-dihydro-1H,3H,5H-spiro[benzo[d]pyrazolo[1,2-a][1,2]diazepine-2,1′-cyclopropan]-10-yl)-N^4-(3-isobutyramido-1-methyl-1H-pyrazol-5-yl)succinamide] | 9 nM | 36 nM | 1870 nM | 
CCn1nc(-c2ccco2)cc1NC(=O)C[C@@H](C)C(=O)N[C@@H]1C(=O)N2CCCN2Cc2ccccc21 [Example 85, (R)-N^4-(1-Ethyl-3-(furan-2-yl)-1H-pyrazol-5-yl)-2-methyl-N^1-((S)-11-oxo-2,3,10,11-tetrahydro-1H,5H-benzo[d]pyrazolo [1,2-a][1,2]diazepin-10-yl)succinamide] | 10 nM | 22 nM | 203 nM | 
C[C@H](CC(=O)Nc1cc(NC(=O)C(C)(C)C)nn1C)C(=O)N[C@@H]1C(=O)N2CCCN2Cc2ccccc21 [Example 89, (R)-2-Methyl-N^4-(1-methyl-3-pivalamido-1H-pyrazol-5-yl)-N^1-((S)-11-oxo-2,3,10,11-tetrahydro-1H,5H-benzo[d]pyrazolo [1,2-a][1,2]diazepin-10-yl)succinamide] | 11 nM | 60 nM | 649 nM | 
Cc1cc(-c2cc(NC(=O)C[C@@H](C)C(=O)N[C@@H]3C(=O)N4CCCN4Cc4ccccc43)n(C)n2)on1 [Example 90, (R)-2-Methyl-N^4. (1-methyl-3-(3-methylisoxazol-5-yl)-1H-pyrazol-5-yl)-N^1-((S)-11-oxo-2,3,10,11-tetrahydro-1H,5H-benzo[d]pyrazolo [1,2-a][1,2]diazepin-10-yl)succinamide] | 11 nM | 11 nM | 635 nM | 
C[C@H](CC(=O)Nc1cc(-c2ccccn2)nn1C)C(=O)N[C@@H]1C(=O)N2CCCN2Cc2ccccc21 [Example 94, (R)-2-Methyl-N^4-(1-methyl-3-(pyridin-2-yl)-1H-pyrazol-5-yl)-N^1-((S)-11-oxo-2,3,10,11-tetrahydro-1H,5H-benzo[d]pyrazolo [1,2-a][1,2]diazepin-10-yl)succinamide] | 12 nM | 34 nM | 2540 nM | 
C[C@@H](CF)NC(=O)c1cc(NC(=O)C[C@H](C(=O)N[C@@H]2C(=O)N3CCCN3Cc3c(F)cccc32)C2CC2)n(C)n1 [Example 100, (S)-2-Cyclopropyl-N^1-((S)-6-fluoro-11-oxo-2,3,10,11-tetrahydro-1H,5H-benzo[d]pyrazolo [1,2-a][1,2]diazepin-10-yl)-N^4-(3-(((S)-1-fluoropropan-2-yl)carbamoyl)-1-methyl-1H-pyrazol-5-yl)succinamide] | 15 nM | 28 nM | 272 nM | 
C[C@H](CC(=O)Nc1cc(C(=O)NC2CC2)nn1C)C(=O)N[C@@H]1C(=O)N2CCCN2Cc2ccccc21 [Example 102, (R)-N^4-(3-(Cyclopropylcar-bamoyl)-1-methyl-1H-pyrazol-5-yl)-2-methyl-N^1-((S)-11-oxo-2,3,10,11-tetrahydro-1H,5H-benzo[d]pyrazolo [1,2-a][1,2]diazepin-10-yl)succinamide] | 17 nM | 123 nM | 1520 nM | 
Cn1nc(-c2cc(C3CC3)no2)cc1NC(=O)C[C@H](C(=O)N[C@@H]1C(=O)N2CC3(CC3)CN2C(=O)c2ccccc21)C1CC1 [Example 103, (S)-2-Cyclopropyl-N^4-(3-(3-cyclopropylisoxa-zol-5-yl)-1-methyl-1H-pyrazol-5-yl)-N^1-((S)-5,11-dioxo-10,11-dihydro-1H,3H,5H-spiro[benzo[d]pyr-azolo[1,2-a][1,2]diazepine-2,1″- cyclopropan]-10-yl)succinamide] | 17 nM | 13 nM | 1250 nM | 

The remaining molecules from weak to strong by IC50 (human SPPL2a [1]), led by results:

IC50 (human SPPL2a [1]) | IC50 (human SPPL2a [2]) | IC50 (Sppl2a CD74) | Molecule | IC50 (γ-secretase)
15 nM | 7 nM | 473 nM | CCn1nc(-c2cc(C)no2)cc1NC(=O)C[C@@H](C)C(=O)N[C@@H]1C(=O)N2CCCN2Cc2ccccc21 [Example 101, (R)-N^4-(1-Ethyl-3-(3-methylisoxazol-5-yl)-1H-pyrazol-5-yl)-2-methyl-N^1-((S)-11-oxo-2,3,10,11-tetrahydro-1H,5H-benzo[d]pyrazolo [1,2-a][1,2]diazepin-10-yl)succinamide] | 
14 nM | 50 nM | 892 nM | COCCn1cc(-c2nc(Cl)c(NC(=O)C[C@@H](C)C(=O)N[C@@H]3C(=O)N4CCCN4Cc4ccccc43)s2)cn1 [Example 99, (R)-N^4-(4-Chloro-2-(1-(2-methoxyethyl)-1H-pyrazol-4-yl)thiazol-5-yl)-2-methyl-N^1-((S)-11-oxo-2,3,10,11-tetrahydro-1H,5H-benzo[d]pyrazolo [1,2-a][1,2]diazepin-10-yl)succinamide] | 
12 nM | 168 nM | 1130 nM | CC(C)C(=O)Nc1cc(NC(=O)C[C@H](C(=O)N[C@@H]2C(=O)N3CC4(CC4)CN3C(=O)c3ccccc32)C2CC2)n(C)n1 [Example 93, (S)-2-Cyclopropyl-N^1-((S)-5,11-dioxo-10,11-dihydro-1H,3H,5H-spiro[benzo[d]pyrazolo[1,2-a][1,2]diazepine-2,1′-cyclopropan]-10-yl)-N^4-(3-isobutyramido-1-methyl-1H-pyrazol-5-yl)succinamide] | 
11 nM | 24 nM | 500 nM | CC(C)NC(=O)c1ncc(NC(=O)C[C@@H](C)C(=O)N[C@@H]2C(=O)N3CCCN3Cc3ccccc32)s1 [Example 91, (R)-N^4-(2-(Isopropylcarba-moyl)thiazol-5-yl)-2-methyl-N^1-((S)-11-oxo-2,3,10,11-tetrahydro-1H,5H-benzo[d]pyrazolo [1,2-a][1,2]diazepin-10-yl)succinamide] | 
7 nM | 8 nM | 910 nM | Cc1cc(-c2cc(NC(=O)C[C@@H](C)C(=O)N[C@@H]3C(=O)N4CCCN4Cc4ccccc43)n(C)n2)no1 [Example 80, (R)-2-Methyl-N^4-(1-methyl-3-(5-methylisoxazol-3-yl)-1H-pyrazol-5-yl)-N^1-((S)-11-oxo-2,3,10,11-tetrahydro-1H,5H-benzo[d]pyrazolo [1,2-a][1,2]diazepin-10-yl)succinamide] | 
6 nM | 5 nM | 250 nM | CC(C)NC(=O)c1cc(NC(=O)C[C@H](C(=O)N[C@@H]2C(=O)N3CCCN3Cc3c(F)cccc32)C2CC2)n(C)n1 [Example 77, (S)-2-Cyclopropyl-N^1-((S)-6-fluoro-11-oxo-2,3,10,11-tetrahydro-1H,5H-benzo[d]pyrazolo [1,2-a][1,2]diazepin-10-yl)-N^4-(3-(isopropylcarba-moyl)-1-methyl-1H-pyrazol-5-yl)succinamide] | 
